Results taken from article PMC12064818, “A general assay platform to study protein pharmacology using ligand-dependent structural dynamics” (Nature Communications, 2025).

Biological target: firefly luciferase (FLuc) (Photinus pyralis, UniProt P08659)
Assay: Thermal shift profiles (Thermofluor assay), FLuc;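 for Thermofluor FLuc, No ATP: normalized first derivative of fluorescence (dF/dT) at the stated temperature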
Assay type: binding
Set-up: unit of the concentration uncertain
Conditions: compound 100 (unit uncertain); for Thermofluor FLuc, ATP: ATP (2 (unit uncertain))

Sequence of firefly luciferase (FLuc) (P08659 whole entry): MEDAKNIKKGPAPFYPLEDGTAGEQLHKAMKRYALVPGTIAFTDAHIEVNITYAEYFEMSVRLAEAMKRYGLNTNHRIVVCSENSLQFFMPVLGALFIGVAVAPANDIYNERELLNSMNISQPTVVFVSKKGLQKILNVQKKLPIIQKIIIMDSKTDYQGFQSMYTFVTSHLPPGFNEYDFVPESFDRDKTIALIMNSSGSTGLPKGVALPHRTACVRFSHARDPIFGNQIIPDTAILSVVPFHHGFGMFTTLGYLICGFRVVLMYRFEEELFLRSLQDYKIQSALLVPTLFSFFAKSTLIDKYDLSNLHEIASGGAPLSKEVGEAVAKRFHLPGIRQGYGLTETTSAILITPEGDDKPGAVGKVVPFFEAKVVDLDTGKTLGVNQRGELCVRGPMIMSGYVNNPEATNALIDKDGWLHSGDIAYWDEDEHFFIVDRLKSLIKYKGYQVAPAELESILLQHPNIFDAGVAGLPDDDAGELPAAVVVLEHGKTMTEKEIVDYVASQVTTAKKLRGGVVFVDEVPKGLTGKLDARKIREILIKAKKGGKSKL

CC(CNC(=O)C1CCN(C(=O)c2ncn3c2COC(c2ccccc2)C3)CC1)c1ccccc1 (centres unmarked) [NCGC 00449795]
Thermofluor FLuc, No ATP (20.000 °C): 0.224
Thermofluor FLuc, ATP (20.000 °C): 0.781
Thermofluor FLuc, No ATP (20.993 °C): 0.114
Thermofluor FLuc, ATP (20.993 °C): 0.794
Thermofluor FLuc, No ATP (21.987 °C): 0.126
Thermofluor FLuc, ATP (21.987 °C): 0.808
Thermofluor FLuc, No ATP (22.980 °C): 0.133
Thermofluor FLuc, ATP (22.980 °C): 0.818
Thermofluor FLuc, No ATP (23.974 °C): 0.087
Thermofluor FLuc, ATP (23.974 °C): 0.824
Thermofluor FLuc, No ATP (24.967 °C): 0.106
Thermofluor FLuc, ATP (24.967 °C): 0.824
Thermofluor FLuc, No ATP (25.960 °C): 0.064
Thermofluor FLuc, ATP (25.960 °C): 0.818
Thermofluor FLuc, No ATP (26.954 °C): 0.085
Thermofluor FLuc, ATP (26.954 °C): 0.807
Thermofluor FLuc, No ATP (27.947 °C): 0.040
Thermofluor FLuc, ATP (27.947 °C): 0.794
Thermofluor FLuc, No ATP (28.940 °C): 0.026
Thermofluor FLuc, ATP (28.940 °C): 0.78
Thermofluor FLuc, No ATP (29.934 °C): 0.058
Thermofluor FLuc, ATP (29.934 °C): 0.768
Thermofluor FLuc, No ATP (30.927 °C): 0.042
Thermofluor FLuc, ATP (30.927 °C): 0.757
Thermofluor FLuc, No ATP (31.921 °C): 0.056
Thermofluor FLuc, ATP (31.921 °C): 0.744
Thermofluor FLuc, No ATP (32.914 °C): 0.053
Thermofluor FLuc, ATP (32.914 °C): 0.724
Thermofluor FLuc, No ATP (33.907 °C): 0.025
Thermofluor FLuc, ATP (33.907 °C): 0.688
Thermofluor FLuc, No ATP (34.901 °C): 0.000
Thermofluor FLuc, ATP (34.901 °C): 0.633
Thermofluor FLuc, No ATP (35.894 °C): 0.005
Thermofluor FLuc, ATP (35.894 °C): 0.557
Thermofluor FLuc, No ATP (36.887 °C): 0.023
Thermofluor FLuc, ATP (36.887 °C): 0.463
Thermofluor FLuc, No ATP (37.881 °C): 0.061
Thermofluor FLuc, ATP (37.881 °C): 0.358
Thermofluor FLuc, No ATP (38.874 °C): 0.092
Thermofluor FLuc, ATP (38.874 °C): 0.252
Thermofluor FLuc, No ATP (39.868 °C): 0.154
Thermofluor FLuc, ATP (39.868 °C): 0.156
Thermofluor FLuc, No ATP (40.861 °C): 0.218
Thermofluor FLuc, ATP (40.861 °C): 0.078
Thermofluor FLuc, No ATP (41.854 °C): 0.347
Thermofluor FLuc, ATP (41.854 °C): 0.026
Thermofluor FLuc, No ATP (42.848 °C): 0.433
Thermofluor FLuc, ATP (42.848 °C): 0
Thermofluor FLuc, No ATP (43.841 °C): 0.514
Thermofluor FLuc, ATP (43.841 °C): 0
Thermofluor FLuc, No ATP (44.835 °C): 0.555
Thermofluor FLuc, ATP (44.835 °C): 0.021
Thermofluor FLuc, No ATP (45.828 °C): 0.658
Thermofluor FLuc, ATP (45.828 °C): 0.057
Thermofluor FLuc, No ATP (46.821 °C): 0.723
Thermofluor FLuc, ATP (46.821 °C): 0.105
Thermofluor FLuc, No ATP (47.815 °C): 0.793
Thermofluor FLuc, ATP (47.815 °C): 0.162
Thermofluor FLuc, No ATP (48.808 °C): 0.830
Thermofluor FLuc, ATP (48.808 °C): 0.225
Thermofluor FLuc, No ATP (50.795 °C): 0.929
Thermofluor FLuc, ATP (50.795 °C): 0.362
Thermofluor FLuc, No ATP (51.788 °C): 0.936
Thermofluor FLuc, ATP (51.788 °C): 0.434
Thermofluor FLuc, ATP (52.782 °C): 0.507
Thermofluor FLuc, No ATP (53.775 °C): 1.000
Thermofluor FLuc, ATP (53.775 °C): 0.578
Thermofluor FLuc, No ATP (54.768 °C): 0.997
Thermofluor FLuc, ATP (54.768 °C): 0.643
Thermofluor FLuc, No ATP (55.762 °C): 0.999
Thermofluor FLuc, ATP (55.762 °C): 0.699
Thermofluor FLuc, No ATP (56.755 °C): 0.989
Thermofluor FLuc, ATP (56.755 °C): 0.743
Thermofluor FLuc, No ATP (57.748 °C): 0.966
Thermofluor FLuc, ATP (57.748 °C): 0.774
Thermofluor FLuc, No ATP (58.742 °C): 0.936
Thermofluor FLuc, ATP (58.742 °C): 0.793
Thermofluor FLuc, No ATP (59.735 °C): 0.945
Thermofluor FLuc, ATP (59.735 °C): 0.802
Thermofluor FLuc, No ATP (60.729 °C): 0.960
Thermofluor FLuc, ATP (60.729 °C): 0.805
Thermofluor FLuc, No ATP (61.722 °C): 0.919
Thermofluor FLuc, ATP (61.722 °C): 0.804
Thermofluor FLuc, No ATP (62.715 °C): 0.915
Thermofluor FLuc, ATP (62.715 °C): 0.801
Thermofluor FLuc, No ATP (63.709 °C): 0.911
Thermofluor FLuc, ATP (63.709 °C): 0.797
Thermofluor FLuc, No ATP (65.695 °C): 0.892
Thermofluor FLuc, ATP (65.695 °C): 0.793
Thermofluor FLuc, No ATP (66.689 °C): 0.889
Thermofluor FLuc, ATP (66.689 °C): 0.799
Thermofluor FLuc, No ATP (68.676 °C): 0.909
Thermofluor FLuc, ATP (68.676 °C): 0.827
Thermofluor FLuc, No ATP (69.669 °C): 0.830
Thermofluor FLuc, ATP (69.669 °C): 0.847
Thermofluor FLuc, No ATP (70.662 °C): 0.839
Thermofluor FLuc, ATP (70.662 °C): 0.865
Thermofluor FLuc, No ATP (71.656 °C): 0.811
Thermofluor FLuc, ATP (71.656 °C): 0.881
Thermofluor FLuc, No ATP (72.649 °C): 0.810
Thermofluor FLuc, ATP (72.649 °C): 0.893
Thermofluor FLuc, No ATP (73.643 °C): 0.758
Thermofluor FLuc, ATP (73.643 °C): 0.901
Thermofluor FLuc, No ATP (74.636 °C): 0.788
Thermofluor FLuc, ATP (74.636 °C): 0.906
Thermofluor FLuc, No ATP (75.629 °C): 0.714
Thermofluor FLuc, ATP (75.629 °C): 0.91
